Source: patent US11667646B2, “Solid state forms of rucaparib and of rucaparib salts” (ASSIA CHEMICAL INDUSTRIES LTD., priority 2017, dated 2023)
Where a name gives a salt, the structure may show the parent alone.

Experiments:
[1] = Kinetic solubility at various pH ranges; type: physicochemical
[2] = API mass increase of the salt vs. the free base
Hygroscopicity = type: physicochemical
[3] = Solid state stability at controlled relative humidity, room temperature, open Petri dish; type: physicochemical
Compressibility = type: physicochemical
[4] = 20-100% relative humidity (RH) at room temperature (RT) in open Petri dish

| kinetic solubility [1] | API mass increase of the salt vs. the free base [2] | hygroscopicity (Hygroscopicity) | period of stability [3, 4] | compressibility properties (Compressibility) | period of stability ([3]; 20-40% relative humidity (RH) at room temperature (RT) in open Petri dish) | SMILES |
| --- | --- | --- | --- | --- | --- | --- |
| improved | 9% | non-hygroscopic | at least 1 month | good |  | CNCc1ccc(-c2[nH]c3cc(F)cc4c3c2CCNC4=O)cc1 [Crystalline Form IV of Rucaparib Hemi-Edisylate] [8-fluoro-2-{4-[(methylamino)methyl]phenyl}-1,3,4,5-tetrahydro-6H-azepino[5,4,3-cd]indol-6-one Hemi-Edisylate] |
|  | 72% |  |  |  |  | CNCc1ccc(-c2[nH]c3cc(F)cc4c3c2CCNC4=O)cc1 [Rucaparib camsylate, 8-fluoro-2-{4-[(methylamino)methyl]phenyl}-1,3,4,5-tetrahydro-6H-azepino[5,4,3-cd]indol-6-one ((1S,4R)-7,7 dimethyl-2-oxobicyclo[2.2.1]hept-1-yl) methane-sulfonic acid salt, reference compound] |
|  | no API mass increase |  |  |  | at least 1 month | CNCc1ccc(-c2[nH]c3cc(F)cc4c3c2CCNC4=O)cc1 [Crystalline Form II of Rucaparib base, 8-fluoro-2-{4-[(methylamino)methyl]phenyl}-1,3,4,5-tetrahydro-6H-azepino[5,4,3-cd]indol-6-one] |
| improved | no API mass increase | non-hygroscopic | at least 1 month |  |  | CNCc1ccc(-c2[nH]c3cc(F)cc4c3c2CCNC4=O)cc1 [Crystalline Form C of Rucaparib base, 8-fluoro-2-{4-[(methylamino)methyl]phenyl}-1,3,4,5-tetrahydro-6H-azepino[5,4,3-cd]indol-6-one] |
| improved | no API mass increase | non-hygroscopic | at least 1 month |  |  | CNCc1ccc(-c2[nH]c3cc(F)cc4c3c2CCNC4=O)cc1 [Crystalline Form I of Rucaparib base, 8-fluoro-2-{4-[(methylamino)methyl]phenyl}-1,3,4,5-tetrahydro-6H-azepino[5,4,3-cd]indol-6-one] |
| improved | 53% | non-hygroscopic | at least 1 month | good |  | CNCc1ccc(-c2[nH]c3cc(F)cc4c3c2CCNC4=O)cc1.Cc1ccc(S(=O)(=O)O)cc1 [8-fluoro-2-{4-[(methylamino)methyl]phenyl}-1,3,4,5-tetrahydro-6H-azepino[5,4,3-cd]indol-6-oneTosylate] |
